Patent publication US7723289B2, “PIF tetrapeptides” (BioIncept, LLC, priority 2003, dated 2010)
Several values for one entry are separate records, joined by “and”; a condition that tells them apart may be missing. Equal values may be shown once. Read-outs that look alike come from different tables or passages of the source.

How the values were obtained:
PBMC = experiment: Time-dependent cytokine secretion by PBMC (Table 3); format: cell-based, human
Method: Detailed time dependent and multiple controls were used the secretion of several cytokines by PBMC (IL-2, IL-5, IL-8, GM-CSF, IL-4, IL-10, TNF-α, IFN-γβ, IL-1 and IL-6) were measured. […] By 4 hours, sPIF-1 blocked TNF alpha with recovery by 24 hours. Also INFgamma secretion initiated only after 48 hours. […] Effects on cytokines was already noted at 0.7 nM. Similar effects were found also with other mitogens LPS and PHA when PIF-1 was tested.

human lymphocytes = system: human lymphocytes
Method: Human PBMC were isolated and cultured for 2-4 days in AIM-V medium containing 0 to 200 nM of sPIF-115 (SEQ ID NO:13) or scrPIF-115 (SEQ ID NO:5). The following proliferation-activating agents were used: anti-CD3 antibody (10 μg/ml solution) bound on the plate wells in the presence or absence of IL-2 at 10 μg/ml; phytohemmaglutinin (PHA) at 4 μg/ml. The effects of sPIF-115 (SEQ ID NO:13) or scrPIF-115 (SEQ ID NO:5) peptides were also determined by the mixed lymphocyte reaction (MLR) after 3 days in heterologous cultures of PBMC with cells previously treated with mitomycin C (100 μg/ml for 4 h). Cell proliferation was determined by tritiated thymidine incorporation (16 h) of 72-h culture. Cytokine release (IL-4, IL-10, IFN-γ and TNF-α) into culture supernatants was determined at 72 h of culture by ELISA (R&D System).

[1] = system: donor lymphocytes and platelets; format: cell-based, human
Source text: The PIF assay, as disclosed in U.S. Pat. No. 5,646,003 to Barnea et al., entitled “Preimplantation Factor” issued Jul. 9, 1997, and in U.S. Pat. No. 5,981,198 to Barnea et al., entitled “Preimplantation Factor” granted Nov. 9, 1999, the disclosures of which are incorporated herein by reference in their entirety, may be used to measure the response of the immune system to pregnancy specific preimplantation factors. […] Lymphocyte-platelet rosettes result from the interaction of the T cell surface protein CD2 with its ligand CD58 expressed on the platelet membrane. Anti-CD2, by binding to the CD2 antigen on the T cells, inhibits their interaction with platelets.
Human PBMC were isolated by the Ficoll method. FITC-labeled nPIF-115 (SEQ ID NO: 1) and (FITC)-labeled scrPIF-1 (SEQ ID NO:5) and match-size irrelevant peptide (FITC)-labeled negative controls negPIF-1(15) (SEQ ID NO:11), were dissolved in PBS at concentrations ranging from 0.75 to 48.19 μM, and were incubated with 500,000 lymphocytes for 1 h at room temperature. The cells were washed 6 times with PBS and resuspended in 500 μl of the same buffer. T-cells and monocytes identification was performed in independent experiments by incubation with anti-CD3 and anti-CD14 antibody-phycoerithryn (PE) labeled. nPIF-115 (SEQ ID NO: 1) binding to PBMC was determined by flow cytometry. In addition, rosettes formed by T cell-platelets were detected by flow cytometry using anti-CD3 antibody-PE and anti-CD41a antibody-FITC (all antibodies were from Pharmingen Inc.).

epithelial cells = experiment: PIF binding to endometrial epithelial cells (MaBCD2 staining); parameters: species or system human; settings: compared to non-relevant IgG
Method: In addition, to compare the recovery of β-3 integrin expression with PIF effects described after cultured hEEC in a free-fetal bovine serum (FBS) medium some cells were cultured again in FBS-medium. […] PIF binding to epithelial cells was also examined. Binding was examined using MaBCD2 staining.

[2] = 4 h post induction, substance alone
[3] = 4 h post induction, with MabCD3 coated wells
[4] = 24 h post induction, substance alone
[5] = 24 h post induction, with MabCD3 coated wells
[6] = 48 h post induction, substance alone
[7] = 48 h post induction, with MabCD3 coated wells
[8] = 96 h post induction, substance alone
[9] = 96 h post induction, with MabCD3 coated wells

Method for 46 different kinases: The effect of PIF-1 on kinases related to metabolic function was examined. The methodology for testing PIF activity on MEK1 kinase is described below, but it is applicable for all kinases tested: 50 nM Tris pH, 0.1 mM EGTA 0.10% b-mercaptoethanol 1 mg/mg BSA PIF-1 15 was dissolved in deionised water at 5 nM-5 uM range of concentrations. […] (SEQ ID NO: 23), 10 mM Mg Acetate and [gamma-33P-ATP] 500 cpm/pmol. Reaction initiated with addition of MgATP. After 40 minutes incubation at room temperature, reaction stopped by the addition of 5 ul of a 3% phosphoric acid solution. 10 ul of the reaction is spotted onto a P30 filtermat and washed three times for 5 min in 75 mM phosphoric acid and once in methanol prior to drying and scintillation counting.
The effects of PIF on 46 different kinases (listed below in Table 5) related to metabolic function were tested.

MVRIKPGSANKPSDD [sPIF-1(15)]
interaction with kinases related to metabolic function (46 different kinases): does not interact with any of kinases | concentration at which effects on cytokines was already noted (PBMC): 0.7 nM | GM-CSF (PBMC; [2]): 0 pg/mL | IFN-y (PBMC; [2]): 0 pg/mL | IL-1β (PBMC; [2]): 0 pg/mL | IL-2 (PBMC; [2]): 0 pg/mL | IL-4 (PBMC; [2]): 0 pg/mL | IL-5 (PBMC; [2]): 0 pg/mL | IL-6 (PBMC; [2]): 0 pg/mL | IL-8 (PBMC; [2]): 684.5 pg/mL | IL-10 (PBMC; [2]): 0 pg/mL | TNF-α (PBMC; [2]): 0 pg/mL | GM-CSF (PBMC; [3]): 0 pg/mL | IFN-y (PBMC; [3]): 0 pg/mL | IL-1β (PBMC; [3]): 0 pg/mL | IL-2 (PBMC; [3]): 0 pg/mL | IL-4 (PBMC; [3]): 0 pg/mL | IL-5 (PBMC; [3]): 0 pg/mL | IL-6 (PBMC; [3]): 17.5 pg/mL | IL-8 (PBMC; [3]): 514.8 pg/mL | IL-10 (PBMC; [3]): 0 pg/mL | TNF-α (PBMC; [3]): 481.6 pg/mL | GM-CSF (PBMC; [4]): 0 pg/mL | IFN-y (PBMC; [4]): 0 pg/mL | IL-1β (PBMC; [4]): 0 pg/mL | IL-2 (PBMC; [4]): 0 pg/mL | IL-4 (PBMC; [4]): 0 pg/mL | IL-5 (PBMC; [4]): 0 pg/mL | IL-6 (PBMC; [4]): 36.3 pg/mL | IL-8 (PBMC; [4]): >6330 pg/mL | IL-10 (PBMC; [4]): 0 pg/mL | TNF-α (PBMC; [4]): 38.0 pg/mL | GM-CSF (PBMC; [5]): 58.9 pg/mL | IFN-y (PBMC; [5]): 0 pg/mL | IL-1β (PBMC; [5]): 2914.1 pg/mL | IL-2 (PBMC; [5]): 9045.7 pg/mL | IL-4 (PBMC; [5]): 58.9 pg/mL | IL-5 (PBMC; [5]): 397.5 pg/mL | IL-6 (PBMC; [5]): >5200 pg/mL | IL-8 (PBMC; [5]): >6330 pg/mL | IL-10 (PBMC; [5]): 1710.1 pg/mL | TNF-α (PBMC; [5]): >11390 pg/mL | GM-CSF (PBMC; [6]): 0 pg/mL | IFN-y (PBMC; [6]): 0 pg/mL | IL-1β (PBMC; [6]): 0 pg/mL | IL-2 (PBMC; [6]): 0 pg/mL | IL-4 (PBMC; [6]): 0 pg/mL | IL-5 (PBMC; [6]): 0 pg/mL | IL-6 (PBMC; [6]): 0 pg/mL | IL-8 (PBMC; [6]): >6330 pg/mL | IL-10 (PBMC; [6]): 0 pg/mL | TNF-α (PBMC; [6]): 0 pg/mL | GM-CSF (PBMC; [7]): 0 pg/mL | IFN-y (PBMC; [7]): >4740 pg/mL | IL-1β (PBMC; [7]): 3295.4 pg/mL | IL-2 (PBMC; [7]): 6015.3 pg/mL | IL-4 (PBMC; [7]): 0 pg/mL | IL-5 (PBMC; [7]): 943.6 pg/mL | IL-6 (PBMC; [7]): >5200 pg/mL | IL-8 (PBMC; [7]): >6330 pg/mL | IL-10 (PBMC; [7]): 664.9 pg/mL | TNF-α (PBMC; [7]): >11390 pg/mL | GM-CSF (PBMC; [8]): 0 pg/mL | IFN-y (PBMC; [8]): 0 pg/mL | IL-1β (PBMC; [8]): 0 pg/mL | IL-2 (PBMC; [8]): 0 pg/mL | IL-4 (PBMC; [8]): 0 pg/mL | IL-5 (PBMC; [8]): 0 pg/mL | IL-6 (PBMC; [8]): 0 pg/mL | IL-8 (PBMC; [8]): 6679.0 pg/mL | IL-10 (PBMC; [8]): 0 pg/mL | TNF-α (PBMC; [8]): 0 pg/mL | GM-CSF (PBMC; [9]): 0 pg/mL | IFN-y (PBMC; [9]): 0 pg/mL | IL-1β (PBMC; [9]): 0 pg/mL | IL-2 (PBMC; [9]): 0 pg/mL | IL-4 (PBMC; [9]): 0 pg/mL | IL-5 (PBMC; [9]): 0 pg/mL | IL-6 (PBMC; [9]): 0 pg/mL | IL-8 (PBMC; [9]): 0 pg/mL | IL-10 (PBMC; [9]): 0 pg/mL | TNF-α (PBMC; [9]): 0 pg/mL | Th2 cytokine (IL10) secretion (PBMC; CD3MAb as mitogen, after 24 hours): Major increase | TNF alpha secretion (PBMC; CD3MAb as mitogen, by 4 hours, recovery by 24 hours): blocked | concentration at which lower rates of lymphocyte proliferation was found (human lymphocytes; MLR): 1 nM | concentration at which lower rates of lymphocyte proliferation was found (human lymphocytes; PHA stimulated): 250 nM | concentration at which lower rates of lymphocyte proliferation was found (human lymphocytes; anti-CD3 antibody stimulated): 62.5 nM | Increase in Rosette Formation [1]: >370% and >288% and >208% | increase in the number of rosettes in the presence of the anti-CD2 antibody [1]: four-fold increase | binding to epithelial cells (epithelial cells): highest binding
